Data as given in patent US9296734B2 (AMGEN INC., priority 2013, dated 2016).

target: Cathepsin D (Cat D) (Homo sapiens (Human), UniProt P07339); test: In vitro enzymatic Cathepsin D (Cat D) FRET assay; format: biochemical; conditions: average IC50, cathepsin D enzyme assay; read-out: CatD IC50
Procedure: In Vitro Enzymatic Cathepsin D (Cat D) FRET (Fluorescence Resonance Energy Transfer) Assay
Recombinant Cat D was expressed in CHO cells. The assay buffer for CathepsinD is 0.05 M citrate pH 3.5, 10% DMSO final, 5 mM CHAPS. […] The assays are effectively started by the addition of different FRET substrates (20 nM for Cat D) and the combination is incubated for one hour. The FRET assay is terminated with by addition of Tris buffer, which raises the pH to neutrality, and the fluorescence is determined. The FRET substrate is a peptide with commercially available fluorophore and quencher, on opposite sides of the BACE cleavage site. […] Proteolytic cleavage of the FRET substrate releases quenching of fluorescence (Cat D excitation 500 nm and emission 580 nm).
In addition, the cathepsin D and cathepsin E assays are described in PCT publication WO2011069934.

Cathepsin D (Cat D), sequence (P07339 65-412, species assumed): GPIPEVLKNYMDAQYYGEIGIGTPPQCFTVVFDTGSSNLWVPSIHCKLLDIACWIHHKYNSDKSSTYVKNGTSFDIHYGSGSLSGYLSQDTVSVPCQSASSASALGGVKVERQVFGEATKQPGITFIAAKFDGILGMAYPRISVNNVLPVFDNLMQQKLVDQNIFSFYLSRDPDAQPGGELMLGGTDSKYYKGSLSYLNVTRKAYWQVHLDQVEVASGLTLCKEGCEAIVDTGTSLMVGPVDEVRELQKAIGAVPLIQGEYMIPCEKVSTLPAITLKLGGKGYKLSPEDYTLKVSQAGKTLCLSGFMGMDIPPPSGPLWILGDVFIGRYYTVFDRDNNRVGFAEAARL

SMILES | IC50 [µM]
CC#CCOc1ccc(C(=O)Nc2cc(F)c(F)c([C@]3(CF)C[C@@H](C(F)(F)F)OC(N)=N3)c2)nc1 [Example 160, N-(3-((4S,6S)-2-amino-4-(fluoromethyl)-6-(trifluoromethyl)-5,6-dihydro-4H-1,3-oxazin-4-yl)-4,5-difluorophenyl)-5-(but-2-yn-1-yloxy)picolinamide] | > 400
NC1=N[C@](CF)(c2cc(Oc3ccccn3)ccc2F)C[C@@H](C(F)(F)F)O1 [Example 101, (4S,6S)-4-(2-fluoro-5-(pyridin-2-yloxy)phenyl)-4-(fluoromethyl)-6-(trifluoromethyl)-5,6-dihydro-4H-1,3-oxazin-2-amine] | > 400
NC1=N[C@](CF)(c2cc(NC(=O)c3ccc(Br)cn3)cc(F)c2F)C[C@@H](C(F)(F)F)O1 [Example 157, N-(3-((4S,6S)-2-amino-4-(fluoromethyl)-6-(trifluoromethyl)-5,6-dihydro-4H-1,3-oxazin-4-yl)-4,5-difluorophenyl)-5-bromopicolinamide] | > 400
CC#Cc1cncc(-c2ccc(F)c([C@]3(CF)C[C@@H](C(F)(F)F)OC(N)=N3)c2)c1 [Example 104, (4S,6S)-4-(2-fluoro-5-(5-(prop-1-yn-1-yl)pyridin-3-yl)phenyl)-4-(fluoromethyl)-6-(trifluoromethyl)-5,6-dihydro-4H-1,3-oxazin-2-amine] | 220
COc1cnc(C(=O)Nc2ccc(F)c([C@]3(C)C[C@@H](C(F)(F)F)OC(N)=N3)n2)c(Cl)c1 [Example 80, N-(6-((4S,6S)-2-amino-4-methyl-6-(trifluoromethyl)-5,6-dihydro-4H-1,3-oxazin-4-yl)-5-fluoropyridin-2-yl)-3-chloro-5-methoxypicolinamide] | 658

Now from value to compound:

IC50 [µM] | SMILES
> 400 | NC1=N[C@](CF)(c2cc(NC(=O)c3ncc(C(F)(F)F)cc3Cl)ccc2F)C[C@@H](C(F)(F)F)O1 [Example 44, N-(3-((4S,6S)-2-amino-4-(fluoromethyl)-6-(trifluoromethyl)-5,6-dihydro-4H-1,3-oxazin-4-yl)-4-fluorophenyl)-3-chloro-5-(trifluoromethyl)picolinamide]
> 400 | C#CCOc1cnc(C(=O)Nc2ccc(F)c([C@]3(CF)C[C@@H](C(F)(F)F)OC(N)=N3)c2)cn1 [Example 35, N-(3-((4S,6S)-2-amino-4-(fluoromethyl)-6-(trifluoromethyl)-5,6-dihydro-4H-1,3-oxazin-4-yl)-4-fluorophenyl)-5-(prop-2-yn-1-yloxy)pyrazine-2-carboxamide]
> 400 | NC1=N[C@](CF)(c2cc(NC(=O)c3cnc(OCc4ncco4)cn3)ccc2F)C[C@@H](C(F)(F)F)O1 [Example 46, N-(3-((4S,6S)-2-amino-4-(fluoromethyl)-6-(trifluoromethyl)-5,6-dihydro-4H-1,3-oxazin-4-yl)-4-fluorophenyl)-5-(oxazol-2-ylmethoxy)pyrazine-2-carboxamide]
> 400 | COc1ccc(C(=O)Nc2cnc(F)c([C@]3(C)C[C@@H](C(F)(F)F)OC(N)=N3)c2)nc1 [Example 63, N-(5-((4S,6S)-2-amino-4-methyl-6-(trifluoromethyl)-5,6-dihydro-4H-1,3-oxazin-4-yl)-6-fluoropyridin-3-yl)-5-methoxypicolinamide]
810 | C[C@@]1(c2cc(NC(=O)N3CC=C(C#CC4CC4)CC3)ccc2F)C[C@@H](C(F)(F)F)OC(N)=N1 [Example 124, N-(3-((4S,6S)-2-amino-4-methyl-6-(trifluoromethyl)-5,6-dihydro-4H-1,3-oxazin-4-yl)-4-fluorophenyl)-4-(cyclopropylethynyl)-5,6-dihydropyridine-1(2H)-carboxamide]

same assay, conditions: average IC50; read-out: CatD IC50

SMILES | IC50 [µM]
COc1cnc2c(Nc3ccc(F)c([C@]4(CF)C[C@@H](C(F)(F)F)OC(N)=N4)c3)ncnc2c1 [Example 13, (4S,6S)-4-(2-fluoro-5-((7-methoxypyrido[3,2-d]pyrimidin-4-yl)amino)phenyl)-4-(fluoromethyl)-6-(trifluoromethyl)-5,6-dihydro-4H-1,3-oxazin-2-amine] | > 400
C[C@@]1(c2cc(Nc3ncc(F)c4cc(C#N)cnc34)cnc2F)C[C@@H](C(F)(F)F)OC(N)=N1 [Example 78, 8-((5-((4S,6S)-2-amino-4-methyl-6-(trifluoromethyl)-5,6-dihydro-4H-1,3-oxazin-4-yl)-6-fluoropyridin-3-yl)amino)-5-fluoro-1,7-naphthyridine-3-carbonitrile] | > 400
N#Cc1cncc(-c2ccc(F)c([C@]3(CF)C[C@@H](C(F)(F)F)OC(N)=N3)c2)c1 [Example 103, 5-(3-((4S,6S)-2-amino-4-(fluoromethyl)-6-(trifluoromethyl)-5,6-dihydro-4H-1,3-oxazin-4-yl)-4-fluorophenyl)nicotinonitrile] | 129
NC1=N[C@](CF)(c2cc(Nc3ncnc4cc(Cl)cnc34)ccc2F)C[C@@H](C(F)(F)F)O1 [Example 11, (4S,6S)-4-(5-((7-chloropyrido[3,2-d]pyrimidin-4-yl)amino)-2-fluorophenyl)-4-(fluoromethyl)-6-(trifluoromethyl)-5,6-dihydro-4H-1,3-oxazin-2-amine] | 54.4
Cc1cc(Cl)cnc1C(=O)Nc1ccc(F)c([C@]2(C)C[C@@H](C(F)(F)F)OC(N)=N2)c1 (racemic) [Example 31, N-(3-((4SR,6SR)-2-amino-4-methyl-6-(trifluoromethyl)-5,6-dihydro-4H-1,3-oxazin-4-yl)-4-fluorophenyl)-5-chloro-3-methyl-2-pyridinecarboxamide] | 202

Continued, values first:

IC50 [µM] | SMILES
636 | C[C@@]1(c2nc(NC(=O)c3ncc(Br)cc3Cl)ccc2F)C[C@@H](C(F)(F)F)OC(N)=N1 [Example 86, N-(6-((4S,6S)-2-amino-4-methyl-6-(trifluoromethyl)-5,6-dihydro-4H-1,3-oxazin-4-yl)-5-fluoropyridin-2-yl)-5-bromo-3-chloropicolinamide]
3520 | COc1ccc(C(=O)Nc2cccc([C@]3(CF)C[C@@H](C(F)(F)F)OC(N)=N3)c2)nc1 [Example 145, N-(3-((4S,6S)-2-amino-4-(fluoromethyl)-6-(trifluoromethyl)-5,6-dihydro-4H-1,3-oxazin-4-yl)phenyl)-5-methoxypicolinamide]
2390 | NC1=N[C@](CF)(c2cc(NC(=O)c3ncc(Cl)cc3Cl)ccc2F)C[C@@H](C(F)(F)F)O1 [Example 58, N-(3-((4S,6S)-2-amino-4-(fluoromethyl)-6-(trifluoromethyl)-5,6-dihydro-4H-1,3-oxazin-4-yl)-4-fluorophenyl)-3,5-dichloropicolinamide]
> 400 | COc1cnc(C(=O)Nc2ccc(F)c([C@]3(CF)C[C@H](C(F)(F)F)OC(N)=N3)c2)cn1 (racemic) [Example 25, N-(3-((4S,6R)-2-amino-4-(fluoromethyl)-6-(trifluoromethyl)-5,6-dihydro-4H-1,3-oxazin-4-yl)-4-fluorophenyl)-5-methoxypyrazine-2-carboxamide]

same assay, conditions: average; read-out: CatD IC50

SMILES | IC50 [µM]
C[C@@]1(c2cc(NC(=O)c3ncc(C(F)F)cc3Cl)cc(F)c2F)C[C@@H](C(F)(F)F)OC(N)=N1 [Example 198, N-(3-((4S,6S)-2-amino-4-methyl-6-(trifluoromethyl)-5,6-dihydro-4H-1,3-oxazin-4-yl)-4,5-difluorophenyl)-3-chloro-5-(difluoromethyl)picolinamide] | > 400
Cc1cc(C(F)F)cnc1C(=O)Nc1cc(C)c(F)c([C@]2(CF)C[C@@H](C(F)(F)F)OC(N)=N2)c1 [Example 216, N-(3-((4S,6S)-2-amino-4-(fluoromethyl)-6-(trifluoromethyl)-5,6-dihydro-4H-1,3-oxazin-4-yl)-4-fluoro-5-methylphenyl)-5-(difluoromethyl)-3-methylpicolinamide] | > 400
C#CCOc1cnc(C(=O)Nc2ccc(F)c([C@]3(C)C[C@@H](C(F)(F)F)OC(N)=N3)c2)cn1 [Example 45, N-(3-((4S,6S)-2-amino-4-methyl-6-(trifluoromethyl)-5,6-dihydro-4H-1,3-oxazin-4-yl)-4-fluorophenyl)-5-(prop-2-yn-1-yloxy)pyrazine-2-carboxamide] | 2570
COc1cnc(C(=O)Nc2cc(F)c(Cl)c([C@]3(C)C[C@@H](C(F)(F)F)OC(N)=N3)c2)cn1 [Example 237, N-(3-((4S,6S)-2-amino-4-methyl-6-(trifluoromethyl)-5,6-dihydro-4H-1,3-oxazin-4-yl)-4-chloro-5-fluorophenyl)-5-methoxypyrazine-2-carboxamide] | 194
CC#CCOc1cnc(C(=O)Nc2cc(F)c(F)c([C@]3(C)C[C@@H](C(F)(F)F)OC(N)=N3)c2)c(C)c1 [Example 188, N-(3-((4S,6S)-2-amino-4-methyl-6-(trifluoromethyl)-5,6-dihydro-4H-1,3-oxazin-4-yl)-4,5-difluorophenyl)-5-(but-2-yn-1-yloxy)-3-methylpicolinamide] | 286

Now from value to compound:

IC50 [µM] | SMILES
386 | C[C@@]1(c2cc(NC(=O)c3ccc(Cl)cn3)cc(Cl)c2F)C[C@@H](C(F)(F)F)OC(N)=N1 [Example 207, N-(3-((4S,6S)-2-amino-4-methyl-6-(trifluoromethyl)-5,6-dihydro-4H-1,3-oxazin-4-yl)-5-chloro-4-fluorophenyl)-5-chloropicolinamide]
605 | NC1=N[C@](CF)(c2cc(C#Cc3ccc(OC(F)F)cn3)ccc2F)C[C@@H](C(F)(F)F)O1 [Example 127, (4S,6S)-4-(5-((5-(difluoromethoxy)pyridin-2-yl)ethynyl)-2-fluorophenyl)-4-(fluoromethyl)-6-(trifluoromethyl)-5,6-dihydro-4H-1,3-oxazin-2-amine]
